Article PMC7754465, “Multiparameter Kinetic Analysis for Covalent Fragment Optimization by Using Quantitative Irreversible Tethering (qIT)” (Chembiochem, 2020)

Target: His-Cdk2(F80C,C177A,D145N) (Homo sapiens, UniProt P24941, C177A/D145N/F80C)
Assay: qIT assay with His-Cdk2(F80C,C177A,D145N)
Assay type: binding
Settings: acrylamide 69 0.5 mM, thiol 5 µM
Procedure: site that is normally occupied by the adenosine core of ATP. Indeed, the methyl ester engages in a hydrogen-bonding interaction with the backbone amide of Leu83, mimicking the pyrimidine pharmacophore of ATP, while the acrylamide carbonyl itself is hydrogen bonded to the ε-amine of Lys32.
Next the 57-Cdk2(F80C,C177A) conjugate was prepared and crystallised by heterogeneous microseeding in an analogous manner. This complex diffracted to 2.0 GS H Å […]
Although acrylamide Cdk2(F80C,C177A,D145N) 57 could be O […]
modelled into the electron density map with a cov1.25 alent bond to Cys80, the ligand-binding mode was less clearly defined (Figure 72b). It is postulated that either the ligand binds in N […]
multiple unresolved modes or that the protein was not fully modified such that the ligand 69 […]
clin A2 to form active holoenzymes. The holoenzymes were incubated with peptide substrate, ATP, NADH, PEP, LD and PK Tim e ( h) ! at 37 °C and the absorbance measured over time in clear 384-well plates. Kinase activity is determined from the gradient of Figure the absorbance over time (between 100084. Fluorescence data (normalised against DMSO –3000 s) and normalised relative to pCdk2(WT) = 100% and cyclin A2 only = 0% (n = control) from qIT assay for acrylamide […]
glutathione (5 µM). Vertical error bars represent the standard deviation of fluorogenic thiol quantifications, performed in duplicate. […]

k, thiol Cdk2(F80C,C177A,D145N): 0.23 h–1
Structure (SMILES): C=CC(=O)N1CCN(CC)c2ccccc21 [compound 6]
